Assay results taken from patent EP0922044B1, “PYRROLO(3,2-C) QUINOLINE DERIVATIVES” (PHARMACIA & UPJOHN S.p.A., priority 1996, dated 1998).

Target: T1, kynurenine-3-hydroxylase (Rattus norvegicus, UniProt O88867)
T1 construct: Rat liver mitochondrial extract was used as enzymatic preparation for this assay; from tissue; host or cells: rat liver mitochondrial extract
Assay: Kynurenine-3-hydroxylase assay in rat liver (radiometric, release of tritiated water, mitochondrial extract)
Type: biochemical
Conditions: 37°C, 30 min, 0.025 mM L-kynurenine, read-out: KYN-3-OH inhibition (IC50) Liver
Protocol: Kynurenine-3-hydroxylase assay in rat liver
The assay for kynurenine 3-hydroxylase was based on enzymatic synthesis of tritiated water during hydroxylation reaction. Radiolabelled water was quantified following selective adsorption of the isotopic substrate and its metabolites with active charcoal.
Rat liver mitochondrial extract was used as enzymatic preparation for this assay.
The assay for kynurenine 3-hydroxylase activity was carried out at 37°C for a time of 30 min. The reaction mixture of a total volume of […] was constituted of 44 mg of suspended extract, 100 mM Tris/Cl buffer pH 8.1, 10 mM EDTA, 100mM KCl, 0.8 mM NADPH, 0.025 mM L-kynurenine, 0.5 mCi L-(3,5-^3H)Kynurenine (10 Ci/mmol) and […] of different concentration of inhibitor solutions. After the incubation the reaction was terminated by the addition of 1 mL of 7.5% (w/v) activated charcoal, vortexed and centrifugated for 7 min.
A […] of supernatant was counted by scintillation spectroscopy in 5 ml of liquid scintillation.

T1 sequence (O88867 whole entry): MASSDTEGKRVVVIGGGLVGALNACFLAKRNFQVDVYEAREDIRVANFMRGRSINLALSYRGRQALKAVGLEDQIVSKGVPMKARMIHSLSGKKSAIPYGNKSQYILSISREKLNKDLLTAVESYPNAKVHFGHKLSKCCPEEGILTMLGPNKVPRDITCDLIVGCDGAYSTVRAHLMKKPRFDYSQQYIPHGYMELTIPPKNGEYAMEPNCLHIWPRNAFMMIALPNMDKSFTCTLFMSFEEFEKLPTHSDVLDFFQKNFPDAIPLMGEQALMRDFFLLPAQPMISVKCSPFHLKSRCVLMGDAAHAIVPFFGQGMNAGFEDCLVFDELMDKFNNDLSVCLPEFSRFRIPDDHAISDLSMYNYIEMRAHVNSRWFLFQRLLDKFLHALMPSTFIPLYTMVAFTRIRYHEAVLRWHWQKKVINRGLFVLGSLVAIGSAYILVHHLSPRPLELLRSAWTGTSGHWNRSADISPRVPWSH

| IC50 [µM] | Compound |
| --- | --- |
| 61 | Cc1c[nH]c2c1c(C(=O)O)nc1ccc(Cl)cc12 [FCE 29370, 8-chloro-3-methyl-1H-pyrrolo[3,2-c] quinoline-4-carboxylic acid] |
| 34 | O=C(O)c1nc2cc(Cl)ccc2c2[nH]cc(-c3ccccc3)c12 [FCE 29464, 7-chloro-3-phenyl-1H-pyrrolo[3,2-c] quinoline-4-carboxylic acid] |
